Reference: ChEMBL document CHEMBL1799908, “Discovery and preliminary SARs of keto-indoles as novel indoleamine 2,3-dioxygenase (IDO) inhibitors” (Eur J Med Chem, 2011)
Active and inactive are the calls of the source. The calls are words filed in the database; no cut-off is given here.

Key:
[1] = molecular target: Tryptophan 2,3-dioxygenase (Mus musculus) (UniProt P48776); assay: Inhibition of mouse TDO expressed in mouse mastocytoma P815B cells using L-Trptophan as substrate at 20 uM after overnight by HPLC; assay type: cell-based
[2] = Cytotoxicity against mouse mastocytoma P815B cells assessed as cell viability at 20 uM after overnight incubation by MTT assay; assay type: cell-based; conditions: for viability at 20 µM: mastocytoma P815B cells, read-out: Activity; for Activity: p815b, 20 µM
[3] = molecular target: Indoleamine 2,3-dioxygenase 1 (Mus musculus) (UniProt P28776); assay: Inhibition of mouse IDO expressed in mouse mastocytoma P815B cells using L-Trptophan as substrate at 20 uM after overnight by HPLC; assay type: cell-based
[4] = molecular target: T1, Indoleamine 2,3-dioxygenase 1 (Homo sapiens, UniProt P14902); assay: Competitive inhibition of histidine-tagged human recombinant IDO expressed in bacterial strain BL21 AI using L-Trptophan as substrate measured at 490 nm wavelength after 6 min by colorimetric assay
Target sequence in this assay (P14902 whole entry): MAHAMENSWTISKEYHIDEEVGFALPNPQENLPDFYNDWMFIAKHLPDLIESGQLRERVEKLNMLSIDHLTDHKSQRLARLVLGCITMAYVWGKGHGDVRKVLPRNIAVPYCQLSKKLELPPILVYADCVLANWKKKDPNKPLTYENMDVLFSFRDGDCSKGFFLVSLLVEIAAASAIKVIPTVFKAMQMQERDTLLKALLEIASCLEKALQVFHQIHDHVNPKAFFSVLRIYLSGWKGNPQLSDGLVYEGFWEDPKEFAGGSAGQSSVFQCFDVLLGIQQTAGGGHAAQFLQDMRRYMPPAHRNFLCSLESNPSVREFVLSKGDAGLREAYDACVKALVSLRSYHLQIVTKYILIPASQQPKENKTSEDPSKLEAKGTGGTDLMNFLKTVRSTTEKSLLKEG

[5] = molecular target: T1, Indoleamine 2,3-dioxygenase 1; assay: Uncompetitive inhibition of histidine-tagged human recombinant IDO expressed in Escherichia coli using L-Trptophan as substrate assessed as hypochromic effect by UV analysis
Target sequence in this assay (P14902 whole entry, looked up): as the sequence (P14902 whole entry) above

[6] = molecular target: T1, Indoleamine 2,3-dioxygenase 1; assay: Inhibition of histidine-tagged human recombinant IDO expressed in bacterial strain BL21 AI using L-Trptophan as substrate measured at 490 nm wavelength at 100 uM after 6 min by colorimetric assay
Target sequence in this assay (P14902 whole entry, looked up): as the sequence (P14902 whole entry) above

[7] = molecular target: T1, Indoleamine 2,3-dioxygenase 1; assay: Uncompetitive inhibition of histidine-tagged human recombinant IDO expressed in bacterial strain BL21 AI using L-Trptophan as substrate measured at 490 nm wavelength after 6 min by colorimetric assay
Target sequence in this assay (P14902 whole entry): as above

Tryptophan 2,3-dioxygenase (Mus musculus), sequence (P48776 whole entry): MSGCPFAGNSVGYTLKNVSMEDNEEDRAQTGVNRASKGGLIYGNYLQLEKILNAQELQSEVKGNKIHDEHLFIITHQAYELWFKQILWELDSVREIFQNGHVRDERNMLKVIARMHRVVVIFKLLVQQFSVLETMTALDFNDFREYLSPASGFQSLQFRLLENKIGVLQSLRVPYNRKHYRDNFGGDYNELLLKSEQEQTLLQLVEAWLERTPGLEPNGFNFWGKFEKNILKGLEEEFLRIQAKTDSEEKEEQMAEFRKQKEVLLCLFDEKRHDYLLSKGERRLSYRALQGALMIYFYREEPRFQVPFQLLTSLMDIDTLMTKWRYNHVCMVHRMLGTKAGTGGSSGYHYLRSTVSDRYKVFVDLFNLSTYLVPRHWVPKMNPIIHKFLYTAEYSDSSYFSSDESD
Indoleamine 2,3-dioxygenase 1 (Mus musculus), sequence (P28776 whole entry, looked up): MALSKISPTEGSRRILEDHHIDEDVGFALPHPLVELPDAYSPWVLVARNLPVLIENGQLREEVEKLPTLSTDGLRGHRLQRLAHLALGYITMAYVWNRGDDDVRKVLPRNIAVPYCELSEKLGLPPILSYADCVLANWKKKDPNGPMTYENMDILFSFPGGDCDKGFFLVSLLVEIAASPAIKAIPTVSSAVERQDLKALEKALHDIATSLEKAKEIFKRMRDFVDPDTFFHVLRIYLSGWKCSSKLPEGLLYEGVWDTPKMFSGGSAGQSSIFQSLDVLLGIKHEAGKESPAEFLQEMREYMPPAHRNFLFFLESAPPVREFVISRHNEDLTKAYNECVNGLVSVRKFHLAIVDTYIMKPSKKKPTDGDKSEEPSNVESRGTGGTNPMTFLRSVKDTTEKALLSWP

| SMILES | inhibition [1] | viability at 20 µM [2] | Activity [2] | further results |
| --- | --- | --- | --- | --- |
| O=C(Cc1cccnc1)c1cc2c(F)cccc2[nH]1 | inactive | 80% | – | – |
| COc1ccc2[nH]c(C(=O)Cc3cccnc3)cc2c1 | inactive | – | Non-toxic | – |
| Cn1c(C(=O)Cc2cccnc2)cc2ccccc21 | inactive | – | Non-toxic | – |
| O=C(Nc1cccnc1)c1cc2ccccc2[nH]1 | inactive | 75% | – | – |
| Cc1ccc2[nH]c(C(=O)Cc3cccnc3)cc2c1 | inactive | – | Non-toxic | – |
| OC(Cc1cccnc1)c1cc2ccccc2[nH]1 (configuration not stated) | inactive | 90% | – | – |
| Cn1c(C(=O)Cc2cccnc2)cc2cc(F)ccc21 | inactive | 95% | – | inhibition [3]: inactive; IC50 [4]: 92 µM |
| O=C(Cc1cccnc1)c1cc2ccccc2[nH]1 | inactive | – | Non-toxic | Activity [5]: Active; inhibition [6]: > 50%; Ki [7]: 190 µM |
| c1cncc(CCc2cc3ccccc3[nH]2)c1 | inactive | 90% | – | – |
| O=C(Cc1cccnc1)c1cc2cc([N+](=O)[O-])ccc2[nH]1 | inactive | 90% | – | – |
| Cn1cc(C[C@H](N)C(=O)O)c2ccccc21 [(L)-1-METHYLTRYPTOPHAN] | inactive | – | Non-toxic | – |
| O=C(Cc1cccnc1)c1cc2cc(F)ccc2[nH]1 | inactive | – | Non-toxic | – |
| O=C(Cc1cccnc1)c1cc2cc(Cl)ccc2[nH]1 | inactive | 90% | – | – |
| N#Cc1ccc(-n2nnc3ccccc32)cc1 | – | – | – | inhibition [6]: > 50% |
